Assay results published in US4439434A, “Cephalosporin derivative and pharmaceutical composition containing the derivative” (Kureha Kagaku Kogyo Kabushiki Kaisha, priority 1981, dated 1984).

Assays:
Escherichia coli = assay: Effect on the intestinal bacterial colonies: Escherichia coli in feces; type: in vivo; conditions: mice, oral 500 mg/kg/day for two consecutive days, feces one day after administration
Experimental: (§1) Each of the cephalosporin derivatives of the invention prepared in Examples 1 to 10 was orally administered to mice (one group consisting of five female ICR mice of 6-week-old) for two consecutive days at a dose of 500 mg/kg/day.
(§2) Before and one day after the administration, feces of each mouse were collected and diluted with an anaerobic diluent (phosphoric buffer solution) of 100 times volume and the diluted feces were ground. 0.1 ml of the diluted and ground feces was smeared on each culture medium shown in Table 1 and cultured aerobically or anaerobically (according to the anaerobic glove box method) under each condition shown in Table 1 and the number of each bacterium shown in Table 1 was counted.
DHL agar aerobic, 37° C.,

Pseudomonas aeruginosa = assay: Effect on the intestinal bacterial colonies: Pseudomonas aeruginosa in feces; type: in vivo; conditions: mice, oral 500 mg/kg/day for two consecutive days, feces one day after administration
Experimental: as §1, §2
NAC agar aerobic, 37° C.,

Streptococcus spp. = assay: Effect on the intestinal bacterial colonies: Streptococcus spp. in feces; type: in vivo; conditions: mice, oral 500 mg/kg/day for two consecutive days, feces one day after administration
Experimental: as §1, §2
TATAC agar aerobic, 37° C.,

[1] = tested on: Lactobacillus acidophilus; assay: Effect on the intestinal bacterial colonies: Lactobacillus acidophilus in feces; type: in vivo; conditions: mice, oral 500 mg/kg/day for two consecutive days, feces one day after administration
Experimental: as §1, §2
Lactobacillus acidophilus
LBS agar anaerobic, 37° C.,

Lactobacillus bifidus = assay: Effect on the intestinal bacterial colonies: Lactobacillus bifidus in feces; type: in vivo; conditions: mice, oral 500 mg/kg/day for two consecutive days, feces one day after administration
Experimental: as §1, §2
BS agar anaerobic, 37° C.,

Bacteroides = assay: Effect on the intestinal bacterial colonies: Bacteroides in feces; type: in vivo; conditions: mice, oral 500 mg/kg/day for two consecutive days, feces one day after administration
Experimental: as §1, §2
Bacteroides NBGT agar anaerobic, 37° C.,

[2] = tested on: Escherichia coli IFO 12734; assay: Antibacterial activity (MIC, agar plate) against E. coli; type: cell-based; conditions: Escherichia coli IFO 12734, Mueller-Hinton agar, 37° C., 18 to 24 hours; unit assumed
Experimental: (§3) Antibacterial activity of each of the cephalosporin derivatives of the invention prepared in Examples 1 to 10 was examined against the following two bacteria according to the standard method of Japan Society of Chemitherapy: Escherichia coli IFO 12734 and Staphylococcus aureus IAM 1011.
(§4) Each bacterial strain was inoculated into the Mueller-Hinton's culture medium and cultured at 37° C. for 18 to 48 hours. The cultured medium was diluted so as to contain 1×10^6 cells of the bacteria per one ml, and the obtained medium was used as the bacterial specimen.
(§5) Agar plates were prepared by adding one part by weight of each solution of the cephalosporin derivative of the invention at a predetermined concentration to nine parts by weight of Mueller-Hinton's culture medium.
(§6) A loopful amount of the bacterial specimen prepared above was smeared to make a streak of about 2 cm on each agar plate prepared above and cultured at 37° C. for 18 to 24 hours.
(§7) The minimum concentration for completely inhibiting proliferation of the bacteria (referred to as MIC) was determined.

[3] = tested on: Staphylococcus aureus IAM 1011; assay: Antibacterial activity (MIC, agar plate) against Staph. aureus; type: cell-based; conditions: Staphylococcus aureus IAM 1011, Mueller-Hinton agar, 37° C., 18 to 24 hours; unit assumed
Experimental: as §3, §4, §5, §6, §7

[4] = tested on: Staphylococcus aureus IAM 1011; assay: Activation by rat liver homogenate (S-9 mix), proliferation-inhibiting circle, penicillin cup method; type: cell-based; conditions: incubated with rat liver S-9 mix, 37° C. 20 min; circle diameter relative to the starting compound
Experimental: As an activating enzyme of metabolism, a rat liver homogenate (S-9, manufactured by Oriental Yeast Company, Japan) was used in the following composition per 1 ml (hereinafter referred to as S-9 mix). 0.1 ml of the solution of each of the cephalosporin derivatives of the invention prepared in Examples 1 to 10 at a concentration of 100 μg/ml was mixed with 0.9 ml of S-9 mix or 0.9 ml of 0.1 M phosphoric buffer solution (as a control) and the obtained mixture was incubated at 37° C. for 20 min. with shaking. Staphylococcus aureus IAM 1011 was inoculated into a Mueller-Hinton's culture medium and cultured at 37° C. for 18 hours. The culture medium was adjusted to a cell concentration of 1×10^8 per 1 ml and mixed with 50 times by volume of Mueller-Hinton's agar culture medium to obtain an agar plate. A penicillin cup of 8 mm in diameter was placed on the agar plate prepared above, and into the cup 0.1 ml of the mixture containing the cephalosporin derivative prepared above was introduced and allowed to stand at 4° C. for 2 hours, and then cultured at 37° C. for 18 hours to measure the diameter of a circle in which the proliferation of bacteria was inhibited (proliferation-inhibiting circle). In Table 4, the proliferation-inhibiting index is shown in the ratio (%) of the diameter of the proliferation-inhibiting circle obtained by using each of the cephalosporin derivatives of the invention to that obtained by using each of the starting compound in preparing each of the cephalosporin derivatives of the invention.

ICR-JCL mouse = conditions: conventional cephalosporin antibiotic, route not stated; cited from earlier work

| SMILES | Logarithmic value of the number of bacterial cells per one g of feces, E. coli (Escherichia coli) | Logarithmic value of the number of bacterial cells per one g of feces, Ps. aeruginosa (Pseudomonas aeruginosa) | Logarithmic value of the number of bacterial cells per one g of feces, Strept. spp. (Streptococcus spp.) | Logarithmic value of the number of bacterial cells per one g of feces, L. acidophilus [1] | Logarithmic value of the number of bacterial cells per one g of feces, L. bifidus (Lactobacillus bifidus) | Logarithmic value of the number of bacterial cells per one g of feces, Bacteroides (Bacteroides) | MIC E. coli [2] [µg/mL] | MIC Staph. aureus [3] [µg/mL] | Proliferation-inhibiting index (%) After adding S-9 mix [4] | LD50 (ICR-JCL mouse) |
| --- | --- | --- | --- | --- | --- | --- | --- | --- | --- | --- |
| COC(=O)CNC(=O)c1ccc(NC(=O)C2=C(COC(C)=O)CSC3C(NC(=O)Cc4cccs4)C(=O)N23)cc1 (stereo not shown) [Example 9, N-(4-carbomethoxymethylcarbamoylphenyl)-7-(thienyl-2-acetamido)cephalosporanic acid amide] | 6.5 | < 3.0 | 7.1 | 9.3 | 8.6 | 8.1 | ≥ 100 | ≥ 12.5 | +++ (66-100) |  |
| COC(=O)c1ccccc1NC(=O)C1=C(COC(C)=O)CSC2C(NC(=O)Cc3cccs3)C(=O)N12 (stereo not shown) [Example 10, N-(2-carbomethoxyphenyl)-7-(thienyl-2-acetamido)cephalosporanic acid amide] | 6.5 | < 3.0 | 6.4 | 9.0 | 8.2 | 8.0 | ≥ 100 | ≥ 12.5 | + (1-33) |  |
| CC(=O)OCC1=C(C(=O)O)N2C(=O)[C@@H](NC(=O)Cc3cccs3)[C@H]2SC1 [cephalotin sodium] |  |  |  |  |  |  |  |  |  | about 5 g/kg |
